Laboratory results as given in US20260284082A1, “TARGETING THE PANX1-P2Y2R-TRPV4 PATHWAY TO TREAT LUNG ISCHEMIA-REPERFUSION INJURY” (UNIVERSITY OF VIRGINIA PATENT FOUNDATION, priority 2023, published 2026).

How the values were obtained:
[1] = system: lung IRI; conditions: wild-type mice pretreated, left hilar ligation model; 1 mg/kg intravenous dose; cited from earlier work
[2] = system: porcine transplantation model of lung IRI; experiment: Porcine left lung transplant model of lung IRI; type: in vivo, swine; conditions: for left lung-specific PaO2/FiO2 ratio: 1 mg/kg i.v., mean±SD
Protocol: The University of Virginia's Animal Care and Use Committee approved this study, protocol 4262 (approved 10/23/2021). All procedures were performed in compliance with the National Institutes of Health 1996 Guide for the Care and Use of Laboratory Animals. Ten farm-raised, domestic swine of both sexes (31.6-60.0 kg weight range) were utilized. Animals were randomized to one of two groups (n=5/group). […] GSK219 or vehicle was administered as a systemic, intravenous infusion (100 ml volume over a 30-min period via central venous line placed in the left external jugular vein) beginning after the recipient animal's left pulmonary artery (PA) was clamped (i.e. at the time of recipient lung explant; approximately 40 min prior to initiation of graft reperfusion). All infusions were completed prior to reperfusion of the implanted lung.
A porcine left lung transplant model was utilized as previously described by our laboratory^18, with modifications as described here. On day 1, the donor animal was sedated and intubated. General anesthesia was maintained while animals were ventilated with 100% oxygen to measure baseline parameters. Lungs were ventilated to a tidal volume of 8.0 mL/kg with a respiratory rate of 22 breaths/min and a positive end-expiratory pressure of 5.0 cm H2O. Intravenous heparin (200 IU/kg, APP Pharmaceuticals, Schaumburg, IL) was administered.
Donor animals underwent a median sternotomy and pericardiotomy to expose the heart, great vessels, and lungs. Prostaglandin E1 ([…], Pfizer, New York, NY) was injected into the main PA. […] The lungs were then flushed with 1 L room temperature heparinized Perfadex (XVIVO Perfusion. Inc, Englewood, CO; 10,000 IU heparin per liter) via the cardioplegia cannula. At this point the lungs underwent 30 min of warm ischemia. At the conclusion of warm ischemia, the thoracic cavity was filled with cold (4° C.) slush, and lungs were flushed with an additional 1 L cold Perfadex via the main PA. At mid-inspiration, the trachea was clamped, and the heart-lung bloc was explanted. The lungs were then flushed retrograde with an additional IL cold Perfadex and placed in 4° C. cold storage for 24 hrs.
On day 2, recipient animals were anesthetized and ventilated as above for donor animals. A left thoracotomy was performed. and the left lung hilum was exposed. Central arterial and venous access was obtained for monitoring. Left pneumonectomy and left lung transplantation were performed as previously described.^18 Lung function was monitored during 4 hours of reperfusion while the left thoracotomy remained open. Combined (left and right) lung compliance was monitored throughout reperfusion. Airway pressure measurements and partial pressure of arterial oxygen (PaO2; systemic arterial as well as direct left pulmonary vein samples for graft-specific oxygenation) were obtained after 15 minutes, 1 hour and hourly thereafter. […] PaO2, PaCO2, and pH were measured using an i-STAT handheld blood analyzer (Abbott Point of Care, Princeton, NJ). After 4 hours of reperfusion, the animal was euthanized, and the heart-lung bloc was excised.
After completion of reperfusion, small peripheral samples of the transplanted left lungs were tied off, and fresh tissue samples were collected from the left upper lobe, the left lingula, and left lower lobe. The same surgeon collected all samples from consistent, peripheral, dependent locations of each lobe in all animals. These samples were either used fresh or flash-frozen in liquid nitrogen and stored at −80° C.
Fresh lung samples were patted dry, weighed, and dried in a vacuum oven at 56° C. until the weight stabilized (typically 3-4 days). Lung wet/dry weight ratios were then calculated to assess edema.
After collection of fresh lung samples, the left upper lobe was lavaged using 40 ml normal saline. Total cell counts and differential cell counts in BAL fluid were performed by the University of Virginia Clinical Laboratory in a blinded fashion. […]

[3] = system: murine pulmonary microvascular endothelial cells; conditions: murine PMVECs, acute hypoxia-reoxygenation; cited from earlier work
[4] = after 4 hours of reperfusion, vs vehicle
[5] = after reperfusion, vs vehicle, P<0.05
[6] = after reperfusion, vs vehicle, trended lower

**Q.** Which “lung IRI” value [1] does the source give for O=C(NC1(c2ccccc2)CC1)c1c(CN2CCC(N3CCCCC3)CC2)c(-c2cccc(C(F)(F)F)c2)nc2cc(Br)ccc12 [GSK219, GSK2193874] here?
**A.** significant attenuation

**Q.** What about the “adverse effects of administration” value ([2]; 1 mg/kg i.v. infusion over 30 min to recipient, 4 h reperfusion) of the same compound?
**A.** no adverse effects

**Q.** What about the “left lung-specific PaO2/FiO2 ratio” value ([2]; 3 hours of reperfusion, vehicle 85.4±17.2, P=0.026) of the same compound?
**A.** 276±57 mmHg

**Q.** And the “left lung-specific PaO2/FiO2 ratio” value ([2]; 4 hours of reperfusion, vehicle 104±28.6, P=0.003)?
**A.** 303±37 mmHg

**Q.** What about the “left lung wet/dry weight ratios” value [2, 4] of the same compound?
**A.** no significant differences

**Q.** What about the “overall lung histology by H&E staining” value [2, 4] of the same compound?
**A.** significantly improved

**Q.** And the “wet/dry weight ratios of the left lingula and left lower lobe” value [2, 4]?
**A.** trend lower

**Q.** What about the “neutrophils in BAL fluid (percent of total cells, differential cell count)” value ([2]; after reperfusion, vehicle 80.2±1.4%, P=0.004) of the same compound?
**A.** 61.8±4.4%

**Q.** What about the Ang-2 in plasma ([2]; after reperfusion, vs vehicle) of the same compound?
**A.** significantly reduced

**Q.** What about the “HMGB1 in BAL fluid” value ([2]; after reperfusion, vs vehicle) of the same compound?
**A.** significantly reduced

**Q.** And the ICAM-1 in plasma ([2]; after reperfusion, vs vehicle)?
**A.** not significantly different

**Q.** What about the “IL-1β in BAL fluid” value ([2]; after reperfusion, vs vehicle) of the same compound?
**A.** not significantly altered

**Q.** What about the “IL-8 in BAL fluid” value ([2]; after reperfusion, vs vehicle) of the same compound?
**A.** significantly reduced

**Q.** And the P-selectin in plasma ([2]; after reperfusion, vs vehicle)?
**A.** not significantly different

**Q.** What about the VCAM-1 in plasma ([2]; after reperfusion, vs vehicle) of the same compound?
**A.** not significantly different

**Q.** And the ZO-1 in plasma ([2]; after reperfusion, vs vehicle)?
**A.** significantly reduced

**Q.** And the “ZO-2 in BAL fluid” value ([2]; after reperfusion, vs vehicle)?
**A.** not significantly different but trended lower

**Q.** What about the ZO-2 in plasma ([2]; after reperfusion, vs vehicle) of the same compound?
**A.** but not occludin (FIG. 23A) or ZO-2 (FIG. 23D) were significantly reduced

**Q.** And the claudin-5 in plasma ([2]; after reperfusion, vs vehicle)?
**A.** significantly reduced

**Q.** And the occludin in plasma ([2]; after reperfusion, vs vehicle)?
**A.** but not occludin (FIG. 23A) or ZO-2 (FIG. 23D) were significantly reduced

**Q.** What about the “ZO-1 in BAL fluid” value [2, 5] of the same compound?
**A.** significantly reduced

**Q.** What about the “claudin-5 in BAL fluid” value [2, 5] of the same compound?
**A.** significantly reduced

**Q.** And the “occludin in BAL fluid” value [2, 5]?
**A.** significantly reduced

**Q.** And the “P-selectin in BAL fluid” value ([2]; after reperfusion, vs vehicle, P=0.0075)?
**A.** significantly reduced

**Q.** And the “ICAM-1 in BAL fluid” value [2, 6]?
**A.** No significant changes

**Q.** And the “VCAM1 in BAL fluid” value [2, 6]?
**A.** No significant changes

**Q.** And the “reduction of neutrophil infiltration (immunohistochemistry of lung sections, neutrophils per HPF)” value ([2]; compared to vehicle control, P<0.0001)?
**A.** 70%

**Q.** What about the “systemic arterial PaO2/FiO2 ratio” value ([2]; during reperfusion, vs vehicle) of the same compound?
**A.** improved during reperfusion in the GSK-treated group, although this was not significant

**Q.** And the “histologic score for polymorphonuclear neutrophils per high-powered field (PMNs/HPF)” value ([2]; left lower lobe after reperfusion, vs vehicle, P=0.028)?
**A.** significantly improved

**Q.** And the “histologic composite lung injury score” value ([2]; left lower lobe after reperfusion, vs vehicle, P=0.041)?
**A.** significantly improved

**Q.** What about the “histologic score for alveolar edema” value ([2]; left lower lobe after reperfusion, vs vehicle, P=0.048) of the same compound?
**A.** significantly improved

**Q.** And the “average pulmonary venous pH” value ([2]; throughout reperfusion, vehicle 7.3±0.024, no significant difference)?
**A.** 7.3±0.020

**Q.** What about the “average pulmonary venous PaCO2” value ([2]; throughout reperfusion, vehicle 60.1±2.11, no significant difference) of the same compound?
**A.** 60.4±1.46 mmHg

**Q.** And the “HR-induced secretion of CXCL1/KC” value [3]?
**A.** attenuated
